PubChem BioAssay AID1117337 (Cheminformatics & Chemogenomics Research Group (CCRG), …, 2015)
Activity calls are given as the source filed them. How the calls were made is not given here.

test system: ADSC/ECFC co-culture, VEGF-stimulated, CD31 tube area; test: ADSC/ECFC co-culture angiogenesis inhibition – imaging, VEGF stimulation, CD31 staining, tube area, IC50, dose response (AID 1117337)

Row | Structure (SMILES) | IC50
1 | CCCCCCCCCCCCCCCCCCNC(=O)OC1CCN(C(=O)OC[C@H](COC(=O)N(Cc2cccc[n+]2CC)C(=O)c2ccccc2OC)OC)CC1 | 1.5 µM
2 | Cc1c(C)c2c(c(C)c1O)CCC(C)(COc1ccc(CC3SC(=O)NC3=O)cc1)O2 (configuration not stated) | 5.14 µM (inactive)
3 | COC(=O)Nc1nc2ccc(S(=O)c3ccccc3)cc2[nH]1 (configuration not stated) | 0.288 µM
4 | Cc1c(C(=O)NN2CCCCC2)nn(-c2ccc(Cl)cc2Cl)c1-c1ccc(Cl)cc1 | > 10 µM (inactive)
5 | CC(=O)Oc1cccc2c1C(=O)c1c(OC(C)=O)cc(C(=O)O)cc1C2=O | > 10 µM (inactive)
6 | CCCCC(=O)O[C@H]1CC[C@H]2[C@@H]3CCc4cc(O)ccc4[C@@H]3CC[C@]12C | > 10 µM (inactive)
7 | COCCOC(=O)C1=C(C)NC(C)=C(C(=O)OC/C=C/c2ccccc2)C1c1cccc([N+](=O)[O-])c1 (configuration not stated) | 6.42 µM (inactive)
8 | CN1CCC[C@@H]1CCO[C@](C)(c1ccccc1)c1ccc(Cl)cc1 | > 10 µM (inactive)
9 | C[S+](CC[C@H](N)C(=O)O)C[C@H]1O[C@@H](n2cnc3c(N)ncnc32)[C@H](O)[C@H]1O (some centres not stated) | > 10 µM (inactive)
10 | CC(CC=O)CCCC(C)(C)O (configuration not stated) | > 10 µM (inactive)
11 | CN[C@@H]1C[C@@H](c2ccc(Cl)c(Cl)c2)c2ccccc21 | > 10 µM (inactive)
12 | O=C1C2CC=CCC2C(=O)N1SC(Cl)(Cl)Cl (configuration not stated) | > 10 µM (inactive)
